# Measurements as given in PMC8651714 (Scientific Reports, 2021).
# Like-named read-outs stand apart in the source and are kept apart here.
# How the values were obtained:
# human MAO-A (hMAO-A) = details: cited from earlier work
# human MAO-B (hMAO-B) = details: cited from earlier work
# [1] = molecular target: T1, human vasopressin V1A receptor (Homo sapiens, UniProt P37288); assay: cell-based
# [2] = molecular target: T1, human vasopressin V1A receptor; details: agonist binding, [3H]AVP, 100 µM, duplicate
# [3] = molecular target: T2, human dopamine D2L receptor (Homo sapiens, UniProt P14416); assay: Radioligand binding assay, [3H]methylspiperone, HEK-D2LR membranes; details: duplicate
# T2 construct: host or cells: HEK-293
# rat brain MAO-A = details: cited from earlier work
# rat brain MAO-B = details: cited from earlier work
# hMAO-A = molecular target: T3, hMAO-A (Homo sapiens, UniProt P21397); assay: Recombinant hMAO-A inhibitory assay (luminescent) and enzyme kinetics; format: biochemical
# T3 construct: purchased Sigma Aldrich
# T3 sequence (P21397 1-527): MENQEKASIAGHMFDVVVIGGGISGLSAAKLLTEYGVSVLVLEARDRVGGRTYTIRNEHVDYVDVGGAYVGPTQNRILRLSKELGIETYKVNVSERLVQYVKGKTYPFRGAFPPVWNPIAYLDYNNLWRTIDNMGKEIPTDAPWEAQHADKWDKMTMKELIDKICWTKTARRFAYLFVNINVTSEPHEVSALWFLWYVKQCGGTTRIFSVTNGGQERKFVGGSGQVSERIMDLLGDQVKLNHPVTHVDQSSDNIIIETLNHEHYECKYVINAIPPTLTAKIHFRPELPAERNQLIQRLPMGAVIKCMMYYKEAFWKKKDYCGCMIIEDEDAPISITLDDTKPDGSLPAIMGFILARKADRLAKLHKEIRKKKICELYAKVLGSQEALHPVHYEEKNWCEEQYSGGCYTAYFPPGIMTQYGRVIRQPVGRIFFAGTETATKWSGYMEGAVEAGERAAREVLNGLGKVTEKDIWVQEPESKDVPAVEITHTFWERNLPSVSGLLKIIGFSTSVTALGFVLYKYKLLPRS
# hMAO-B = molecular target: T4, hMAO-B (Homo sapiens, UniProt P27338); assay: biochemical; details: for Ki: inhibition constant from secondary plots
# T4 sequence (P27338 1-520): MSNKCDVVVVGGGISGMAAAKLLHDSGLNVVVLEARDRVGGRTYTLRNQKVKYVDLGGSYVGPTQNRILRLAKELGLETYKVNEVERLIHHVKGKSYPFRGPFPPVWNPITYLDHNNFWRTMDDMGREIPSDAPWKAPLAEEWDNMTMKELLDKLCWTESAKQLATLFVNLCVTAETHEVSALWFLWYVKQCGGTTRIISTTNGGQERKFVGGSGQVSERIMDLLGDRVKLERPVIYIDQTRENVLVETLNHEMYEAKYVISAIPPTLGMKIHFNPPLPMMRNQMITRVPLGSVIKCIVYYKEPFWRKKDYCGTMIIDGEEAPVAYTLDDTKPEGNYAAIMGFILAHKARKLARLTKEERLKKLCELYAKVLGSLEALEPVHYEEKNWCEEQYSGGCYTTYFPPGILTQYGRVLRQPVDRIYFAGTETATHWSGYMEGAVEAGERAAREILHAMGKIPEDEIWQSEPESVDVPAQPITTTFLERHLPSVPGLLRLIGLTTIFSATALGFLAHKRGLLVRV
# [4] = molecular target: human dopamine D1 receptor (Homo sapiens, UniProt P21728); assay: cell-based
# [5] = molecular target: T5, human dopamine D3 receptor (Homo sapiens, UniProt P35462); assay: cell-based
# [6] = molecular target: T5, human dopamine D3 receptor; details: 100 µM
# MAO from bovine serum = system: MAO from bovine serum; design: method as in PMID 1913999; details: read-out: Concentration for 50% inhibition of MAO activity; cited from earlier work
# [7] = molecular target: T6, human dopamine D4 receptor (Homo sapiens, UniProt P21917); assay: Radioligand binding assay, [3H]methylspiperone, CHO-D4R membranes; details: duplicate, read-out: % Inhibition of control-specific binding
# T6 construct: host or cells: CHO
# T6 sequence (P21917 1-419): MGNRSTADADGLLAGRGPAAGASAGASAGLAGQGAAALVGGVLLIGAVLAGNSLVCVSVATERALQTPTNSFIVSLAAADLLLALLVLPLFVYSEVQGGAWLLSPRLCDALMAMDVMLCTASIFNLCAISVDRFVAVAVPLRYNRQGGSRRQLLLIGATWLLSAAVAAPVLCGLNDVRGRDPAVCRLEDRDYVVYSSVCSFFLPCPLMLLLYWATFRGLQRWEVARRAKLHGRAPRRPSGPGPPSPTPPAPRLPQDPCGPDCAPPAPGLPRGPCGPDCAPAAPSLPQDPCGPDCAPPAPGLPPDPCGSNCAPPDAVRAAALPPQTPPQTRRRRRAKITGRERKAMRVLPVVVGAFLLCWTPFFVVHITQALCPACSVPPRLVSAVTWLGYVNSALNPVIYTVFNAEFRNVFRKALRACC
# [8] = ILG isolated from Colvillea racemosa
smiles,measurement,setting,value
"COc1cc(O)ccc1C(=O)/C=C/c1ccc(O)cc1 [3-Deoxysappanchalcone, 2′-methoxy-4′,4″-dihydroxychalcone, reference compound]",IC50,human MAO-A (hMAO-A),10.1 µM
same,IC50,human MAO-B (hMAO-B),0.68 µM
"O=C(/C=C/c1ccc(O)cc1)c1ccc(O)cc1O [Isoliquiritigenin, 4,2′,4′-Trihydroxychalcone]",EC50,[1],78.6 ± 2.7 µM
same,IC50,human MAO-A (hMAO-A); [8],22.7 ± 1.84 µM
same,IC50,human MAO-A (hMAO-A); earlier report,41.5 µM
same,IC50,human MAO-B (hMAO-B); [8],0.51 ± 0.01 µM
same,IC50,human MAO-B (hMAO-B); earlier report,21.8 µM
same,% Inhibition of control-specific binding,[2],60.8%
same,% Inhibition of control-specific binding,[3]; 100 µM,no binding affinity
same,inhibition at 100 µM,[3]; read-out: % Inhibition of control-specific binding,21.3%
same,IC50,"rat brain MAO-A; ILG isolated from Sinofranchetia chinensis, rat brain, read-out: rMAO-A IC50",13.9 µM
same,rMAO-A inhibition type,rat brain MAO-A; previous study,non-competitive inhibition
same,IC50,"rat brain MAO-B; ILG isolated from Sinofranchetia chinensis, rat brain, read-out: rMAO-B IC50",47.2 µM
same,rMAO-B inhibition type,rat brain MAO-B; previous study,mixed inhibition
same,Ki,hMAO-A; inhibition constant from secondary plots,0.16 µM
same,IC50,"hMAO-A; recombinant hMAO-A, mean ± standard deviation of triplicate assays",0.68 ± 0.03 µM
same,IC50,hMAO-B,0.33 ± 0.02 µM
same,Ki,hMAO-B; hMAO-B Kic,0.094 µM
same,Ki,hMAO-B; hMAO-B Kiu,0.71 ± 0.01 µM
same,IC50,[4],68.9 ± 0.2 µM
same,EC50,[5],62.3 ± 0.2 µM
same,% Stimulation (percentage of control agonist response),[6],92.7 ± 0.5%
same,IC50,MAO from bovine serum,> 200 µM
same,inhibition at 100 µM,[7],44.8%
"O=C1C[C@@H](c2ccc(O)cc2)Oc2cc(O)ccc21 [LG, reference compound]",IC50,human MAO-A (hMAO-A),0.27 ± 0.04 µM
same,IC50,human MAO-B (hMAO-B),0.098 µM
